Target: T1, KCC2 (Homo sapiens, UniProt Q9H2X9)
T1 construct: expressed in transfected cells; host or cells: HEK-293 (ATCC CRL-1573)
T1 sequence (Q9H2X9 1-1116 isoform Q9H2X9-2): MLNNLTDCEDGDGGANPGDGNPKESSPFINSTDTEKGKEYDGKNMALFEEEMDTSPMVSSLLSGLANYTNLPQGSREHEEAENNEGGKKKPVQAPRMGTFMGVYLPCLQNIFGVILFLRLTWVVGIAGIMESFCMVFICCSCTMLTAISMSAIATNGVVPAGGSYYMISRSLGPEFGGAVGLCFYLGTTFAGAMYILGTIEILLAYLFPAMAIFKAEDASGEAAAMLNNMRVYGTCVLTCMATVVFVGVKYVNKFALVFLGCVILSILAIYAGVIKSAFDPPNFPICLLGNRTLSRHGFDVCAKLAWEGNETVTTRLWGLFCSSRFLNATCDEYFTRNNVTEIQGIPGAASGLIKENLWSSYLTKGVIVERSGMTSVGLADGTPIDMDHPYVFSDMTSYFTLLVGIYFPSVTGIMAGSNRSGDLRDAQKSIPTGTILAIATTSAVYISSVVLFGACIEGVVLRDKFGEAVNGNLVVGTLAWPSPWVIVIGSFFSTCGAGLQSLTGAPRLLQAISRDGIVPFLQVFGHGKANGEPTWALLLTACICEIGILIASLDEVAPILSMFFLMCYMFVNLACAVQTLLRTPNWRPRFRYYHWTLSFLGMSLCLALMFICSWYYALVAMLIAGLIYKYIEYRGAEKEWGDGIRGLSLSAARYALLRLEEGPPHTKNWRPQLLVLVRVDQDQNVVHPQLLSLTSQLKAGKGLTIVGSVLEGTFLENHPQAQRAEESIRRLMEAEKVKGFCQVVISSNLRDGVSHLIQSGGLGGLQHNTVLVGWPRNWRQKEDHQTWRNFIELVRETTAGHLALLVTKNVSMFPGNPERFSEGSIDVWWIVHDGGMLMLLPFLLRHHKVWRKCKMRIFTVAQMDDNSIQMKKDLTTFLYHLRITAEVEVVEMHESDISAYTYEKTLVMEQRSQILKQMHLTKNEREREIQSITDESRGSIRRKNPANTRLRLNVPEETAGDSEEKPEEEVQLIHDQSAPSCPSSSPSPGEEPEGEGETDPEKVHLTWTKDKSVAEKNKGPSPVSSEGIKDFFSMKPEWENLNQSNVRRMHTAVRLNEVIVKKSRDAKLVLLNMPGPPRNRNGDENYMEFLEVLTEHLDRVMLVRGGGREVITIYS
Test: Biotinylation, plasma membrane level of KCC2 in HEK-293 cells
Format: cell-based
Conditions: 15 min, surface/total KCC2
Procedure: Cell Culture and biotinylation. HEK-293 cells were purchased from ATCC (CRL-1573) and transfected with human KCC2 and GFP expression plasmids using Lipofectamine 2000. Cells were utilized for experimentation 48-72 h following transfection. Cells were biotinylated at 4° C. using NHS-Biotin. Following lysis and purification on immobilized avidin beads, cell surface and total fractions were subject to immunoblotting as outlined previously (Conway et al., 2017, supra).
The reliability of the biotinylation procedure was assessed via immunoblotting with antibodies against the cytosolic protein actin. Actin was present in the total lysates but was absent from the surface fractions (FIG. 2C).

level of KCC2 on the plasma membrane (0.3 μM): 94.5±8.4 % of control
level of KCC2 on the plasma membrane (3 μM): 104.7±8.4 % of control
Structure (SMILES): C[C@@H]1CN(c2nc3c(c(Nc4ccc(C5CCCCC5)cc4)n2)COC3)CCO1 [Compound A, (R)—N-(4-cyclohexylphenyl)-2-(2-methylmorpholino)-5,7-dihydrofuro[3,4-d]pyrimidin-4-amine]

Reference: patent US20260108529A1, “FUSED AMINO PYRIMIDINE COMPOUNDS FOR TREATMENT OF TINNITUS, ACUTE SENSORINEURAL HEARING LOSS, AGE-RELATED HEARING LOSS, AND MENIERE'S DISEASE” (Ovid Therapeutics Inc., priority 2024, published 2026)
